≈ marks a conversion by molar mass, not a printed value.
Tests used:
[1] = system: epican gene (hyaluronic acid receptor); assay: cDNA array gene expression: epican gene; type: cell-based, human; conditions: detectable by cDNA array
Method: (§1) The influence on the expression of the said genes can be detected by means of a cDNA array.
(§2) The culture medium in cell cultures (human keratinocytes) is replaced by culture medium with (test) or without test substance (control). The cells are cultivated further for a defined time, harvested and frozen at −80°.
(§3) The RNA is extracted, where each culture comprises about 200 μg of RNA. The solution is adjusted to 1 μg/μl of RNA and treated with DNAse I in order to remove all DNA residues. The amount of RNA is adjusted to 2 μg/ml.
(§4) The mRNA is transcribed to cDNA ^32P-labelled samples and purified by chromatography.
(§5) The DNA sequences are immobilised on cDNA chip membranes and hybridised (overnight at 68° C). The membranes are washed intensively, and the radioactivity of each measurement point is measured. An increase in the radioactivity means upregulation of the corresponding RNA compared with the control.

arachidonic acid cascade = assay: antiinflammatory activity, keratinocyte monolayer PGE2 model; type: cell-based
Method: In order to induce inflammation, keratinocytes are incubated with the pro-inflammatory substance phorbol myristate acetate (PMA) for 24 hours in 96-well plates (15,000 cells/well). The preincubated cells (final concentration of PMA 0.1 μg/ml) are incubated with 10^−6 M indometacin (positive control) or 0.2 mM [5-hydroxy-7-methoxy-2-(4′-methoxyphenyl)-4-oxo-4H-chromen-8-yl]sulfonic acid monoester for 24 hours. The negative control used is a control culture comprising no PMA. After incubation, the content of prostaglandin E2 (PGE2) in all three samples is determined by ELISA kits.

transglutaminase = assay: cDNA array gene expression in human keratinocytes: transglutaminase gene; type: cell-based; conditions: detectable by cDNA array
Method: The influence on the expression of the said genes can be detected by means of a cDNA array. Expression of the Transqlutaminase Gene The culture medium in cell cultures (human keratinocytes) is replaced by culture medium with (test) or without test substance (control). The cells are cultivated further for a defined time, harvested and frozen at −80°. The RNA is extracted, where each culture comprises about 200 μg of RNA. The solution is adjusted to 1 μg/μl of RNA and treated with DNAse I in order to remove all DNA residues. The amount of RNA is adjusted to 2 μg/ml. The mRNA is transcribed to cDNA ^32P-labelled samples and purified by chromatography. The DNA sequences are immobilised on cDNA chip membranes and hybridised (overnight at 68° C). The membranes are washed intensively, and the radioactivity of each measurement point is measured. An increase in the radioactivity means upregulation of the corresponding RNA compared with the control.

water solubility = type: physicochemical; conditions: at 25° C.
[2] = system: tissue inhibitor of metalloproteinase 1 precursor (TIMP1); assay: cDNA array gene expression: TIMP1; type: cell-based, human; conditions: detectable by cDNA array
Method: as §1, §2, §3, §4, §5

Compound: COc1ccc(-c2cc(=O)c3c(O)cc(OC)c(OS(=O)(=O)O)c3o2)cc1 [[5-hydroxy-7-methoxy-2-(4′-methoxyphenyl)-4-oxo-4H-chromen-8-yl]sulfonic acid monoester]
- expression of the epican gene (hyaluronic acid receptor) [1]: induces the expression
- effect on the arachidonic acid cascade (antiinflammatory action) (arachidonic acid cascade): inhibits the arachidonic acid cascade
- gene expression of transglutaminase (transglutaminase): induction of gene expression
- solubility (water solubility): 21 mg/mL (≈ 53.3 mM)
- synthesis of tissue inhibitor of metalloproteinase 1 precursor (TIMP1) [2]: induces the synthesis

Reference: patent US7588783B2, “Flavonoid derivative” (Merck Patent GmbH, priority 2003, dated 2009)
